Source: publication PMC8158245, “Novel chalcone/aryl carboximidamide hybrids as potent anti-inflammatory via inhibition of prostaglandin E2 and inducible NO synthase activities: design, synthesis, molecular docking studies and ADMET prediction” (Journal of Enzyme Inhibition and Medicinal Chemistry, 2021)
“And” between values parts separate entries of the source, which are not always exact repeats. Equal entries are not always repeated.

Assays:
[1] = system: carrageenan-induced paw edoema; assay: Carrageenan-induced rat paw edoema; format: in vivo, Wistar albino rats; details: rat, 50 mg/kg oral; for % of edoema inhibition (% mean ± SEM), 1 h: 1 h after carrageenan; for % of edoema inhibition (% mean ± SEM), 2 h: 2 h after carrageenan; for % of edoema inhibition (% mean ± SEM), 3 h: 3 h after carrageenan; for % of edoema inhibition (% mean ± SEM), 4 h: 4 h after carrageenan
Protocol: The anti-inflammatory activity of the inspiring active compounds in vitro (4c, 4d, 6a, 6c, 6d and 6e) were further estimated in vivo using the carrageenan-induced paw edoema test. […] The paw thickness was assessed using Vernier calliper after carrageenan injection for 1,2, 3 and 4 h. Wistar albino rats (males weighing 120–140 g, six rats per group) were grouped as follows: Group 1 (Control) rats were received the vehicle. […] The percentage inhibition of edoema thickness was calculated at each time interval in comparison to the control group.

[2] = system: LPS-induced NO production in RAW 264.7 cells; assay: Griess assay for NO release from LPS-stimulated RAW 264.7 cells; format: cell-based; details: Mus musculus, RAW264.7; for inhibition at 5 µM: compounds at 5 µM, 2 h before LPS, RAW 264.7 cells, read-out: NO Inhibition rates (%) ± SD; for IC50: LPS-induced RAW 264.7 cells
Protocol: Equal volumes of Griess reagent and the supernatant, obtained from treated RAW264.7 cells with the compounds 2 h before LPS induction, were mixed for 10 min at room temperature in the dark. The absorbance was measured at 540 nm using ELISA plate reader and the nitrite concentration was calculated from sodium nitrite standard curve. The percentage inhibition (%) is calculated as absorbance at 540 nm of (LPS-compounds)/absorbance at 540 nm of (LPS-control) ×100[47]^,[48].

[3] = MTT cytotoxicity assay on RAW 264.7 cells; format: cell-based; details: mouse; for IC50 at 20 h: with LPS; for IC50: without LPS
Protocol: MTT assay was used to assess the cell viability of RAW 264.7 cells cultured in RPMI-1640 complete media. […] Afterwards, 5 µl of MTT solution were added and incubated for further 4 h. Finally, 150 ul of dimethyl sulfoxide (DMSO) were added and the optical density was assessed at 570 nm using an ELISA plate reader.

iNOS = biological target: T1, iNOS (Mus musculus, UniProt P29477); assay: iNOS enzymatic activity in LPS-induced RAW 264.7 cells; format: cell-based
T1 construct: endogenous in cells; host or cells: RAW 264.7 cells induced with LPS
T1 sequence (P29477 1-1144): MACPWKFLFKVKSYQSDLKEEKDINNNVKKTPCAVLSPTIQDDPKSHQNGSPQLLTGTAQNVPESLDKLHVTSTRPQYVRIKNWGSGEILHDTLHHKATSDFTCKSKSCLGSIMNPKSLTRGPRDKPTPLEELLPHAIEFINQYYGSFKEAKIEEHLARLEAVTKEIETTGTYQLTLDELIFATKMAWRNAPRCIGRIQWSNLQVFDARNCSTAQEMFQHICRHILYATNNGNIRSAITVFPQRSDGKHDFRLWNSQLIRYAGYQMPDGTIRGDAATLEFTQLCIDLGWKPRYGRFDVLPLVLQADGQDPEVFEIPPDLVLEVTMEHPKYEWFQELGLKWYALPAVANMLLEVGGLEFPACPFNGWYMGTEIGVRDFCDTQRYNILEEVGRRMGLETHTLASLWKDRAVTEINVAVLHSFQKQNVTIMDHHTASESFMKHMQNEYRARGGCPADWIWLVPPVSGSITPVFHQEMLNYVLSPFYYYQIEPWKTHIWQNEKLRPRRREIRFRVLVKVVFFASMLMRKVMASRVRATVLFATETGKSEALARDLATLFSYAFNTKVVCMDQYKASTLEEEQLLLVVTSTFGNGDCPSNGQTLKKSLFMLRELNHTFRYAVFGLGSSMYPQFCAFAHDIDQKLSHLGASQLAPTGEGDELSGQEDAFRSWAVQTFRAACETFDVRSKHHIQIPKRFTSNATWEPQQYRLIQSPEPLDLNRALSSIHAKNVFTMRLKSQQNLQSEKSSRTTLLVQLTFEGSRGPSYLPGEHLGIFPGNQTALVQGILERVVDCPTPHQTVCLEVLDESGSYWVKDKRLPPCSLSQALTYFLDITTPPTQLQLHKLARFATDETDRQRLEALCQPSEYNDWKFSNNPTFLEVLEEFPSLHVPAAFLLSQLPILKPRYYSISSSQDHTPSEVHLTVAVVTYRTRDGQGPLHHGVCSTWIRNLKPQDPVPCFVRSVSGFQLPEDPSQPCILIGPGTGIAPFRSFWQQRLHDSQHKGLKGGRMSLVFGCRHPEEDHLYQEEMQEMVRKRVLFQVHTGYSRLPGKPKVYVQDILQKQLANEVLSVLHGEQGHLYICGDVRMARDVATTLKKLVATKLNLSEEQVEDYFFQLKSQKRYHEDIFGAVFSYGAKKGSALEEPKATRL
Protocol: Then, the NOS assay reaction solution (100 µl/well) was added and incubated for an extra 2 h at 37 °C. The fluorescence with excitation wavelength at 485 nm and emission wavelength at 528 nm was measured using a fluorescent microplate reader.

[4] = system: PGE2 production in RAW 264.7 cells; assay: PGE2 concentration by ELISA in LPS-treated RAW 264.7 cells; format: cell-based; details: Mus musculus, RAW264.7; LPS-induced RAW 264.7 cells
Protocol: After seeding and incubation of RAW 264.7 cells for 24 h, then the cells were treated with the compounds (4c, 4d, 6a, 6c, 6d and 6e) at different concentrations and with LPS (1 µg/ml) for another 24 h. The concentration of prostaglandin E2 (PGE2) was measured in the culture media using ELISA kit (R&D Systems, Minneapolis, MN)[50].

bovine COX-1 = biological target: T2, bovine COX-1 (Ovis aries, UniProt P05979); assay: In vitro COX-1 inhibition assay (Cayman kit); format: biochemical
T2 construct: purchased Cayman Chemical 560101
T2 sequence (P05979 25-600): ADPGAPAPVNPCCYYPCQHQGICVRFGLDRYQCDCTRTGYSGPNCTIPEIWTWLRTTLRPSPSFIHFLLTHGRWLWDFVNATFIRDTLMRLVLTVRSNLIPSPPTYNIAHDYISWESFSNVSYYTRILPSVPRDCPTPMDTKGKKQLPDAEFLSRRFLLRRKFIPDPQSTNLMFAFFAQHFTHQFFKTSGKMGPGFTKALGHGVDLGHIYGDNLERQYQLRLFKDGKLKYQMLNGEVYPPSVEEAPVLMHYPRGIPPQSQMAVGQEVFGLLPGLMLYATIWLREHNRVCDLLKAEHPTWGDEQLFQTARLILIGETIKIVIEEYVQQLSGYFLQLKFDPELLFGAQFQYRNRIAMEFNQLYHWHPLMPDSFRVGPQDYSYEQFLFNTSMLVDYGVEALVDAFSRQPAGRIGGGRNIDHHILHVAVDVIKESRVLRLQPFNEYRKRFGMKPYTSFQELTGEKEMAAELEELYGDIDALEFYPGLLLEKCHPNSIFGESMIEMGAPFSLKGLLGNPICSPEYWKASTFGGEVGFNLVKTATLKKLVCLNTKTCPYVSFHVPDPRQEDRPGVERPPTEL

COX-2 = assay: In vitro COX-2 inhibition assay (Cayman kit); format: biochemical, bovine; details: selectivity index from COX 1 and COX 2 IC50
[5] = listed as indomethacin, 50 mg/kg

Compound	% of edoema inhibition (% mean ± SEM), 1 h [1]	% of edoema inhibition (% mean ± SEM), 2 h [1]	% of edoema inhibition (% mean ± SEM), 3 h ([1]; 50 mg/kg)	% of edoema inhibition (% mean ± SEM), 4 h ([1]; 50 mg/kg)	inhibition at 5 µM [2]	melting point	IC50 at 20 h [3]	IC50 [3]	IC50 [2]	IC50 (iNOS)	IC50 [4]	further results
Cc1ccc(-c2cc(C(F)(F)F)nn2-c2ccc(S(N)(=O)=O)cc2)cc1 [Celecoxib, reference compound]	10.61 ± 2.59%	25.43 ± 3.29%	46.42 ± 2.87%	12.32 ± 2.42%								% of edoema inhibition (% mean ± SEM), 3 h [1]: 46.42%; % of edoema inhibition (% mean ± SEM), 4 h ([1]; listed as celecoxib, 50 mg/kg): 12.32%
COc1ccc(/C=C/C(=O)c2ccc(OCC(=O)O/N=C(\N)c3ccccc3)cc2)cc1 [Compound 4a, N’-(2-{4-[(2E)-3-(4-Methoxyphenyl)prop-2-enoyl]phenoxy}acetoxy) benzenecarboximidamide]					41.9 ± 1.4%	164 to 166 °C						
COc1ccc(/C=C/C(=O)c2ccc(OCC(=O)ON=C(N)c3ccc(Cl)cc3)cc2)cc1 [Compound 4b, N’-(2-{4-[(2E)-3-(4-Methoxyphenyl)prop-2-enoyl]phenoxy}acetoxy)-4-chlorobenzenecarboximidamide]					47.6 ± 3.6%	180 to 182 °C						
COc1ccc(/C=C/C(=O)c2ccc(OCC(=O)ON=C(N)c3ccc(OC)cc3)cc2)cc1 [Compound 4c, N’-(2-{4-[(2E)-3-(4-Methoxyphenyl)prop-2-enoyl]phenoxy}acetoxy)-4-methoxybenzenecarboximidamide]	11.21 ± 2.41%	33.62 ± 2.69%	57.71% and 57.71 ± 2.21%	69.86% and 69.86 ± 3.51%	62.3 ± 1.9%		> 80 µM	> 80 µM	8.61 µM	3.62 µM	0.0323 µM	IC50 (bovine COX-1): 19.9 ± 1.03 µM; SI (COX-2): 6.06
COc1ccc(/C=C/C(=O)c2ccc(OCC(=O)ON=C(N)c3ccc(OC)c(OC)c3)cc2)cc1 [Compound 4d, N’-(2-{4-[(2E)-3-(4-Methoxyphenyl)prop-2-enoyl]phenoxy}acetoxy)-3,4-dimethoxybenzenecarboximidamide]	11.65 ± 2.26%	34.78 ± 3.34%	69.5% and 69.50 ± 1.49%		73.5 ± 2.1%		> 80 µM	> 80 µM	5.73 µM	2.22 µM	0.0247 µM	IC50 (bovine COX-1): 5.82 ± 0.3 µM; SI (COX-2): 0.25; % of edoema inhibition (% mean ± SEM), 4 h [1]: 54.21 ± 3.47%
COc1ccc(/C=C/C(=O)c2ccc(OCC(=O)ON=C(N)c3ccc([N+](=O)[O-])cc3)cc2)cc1 [Compound 4e, N’-(2-{4-[(2E)-3-(4-Methoxyphenyl)prop-2-enoyl]phenoxy}acetoxy)-4-nitrobenzenecarboximidamide]					44.1 ± 2.8%	184 to 186 °C						% of edoema inhibition (% mean ± SEM), 3 h [1]: 39.26%
COc1ccc(/C=C/C(=O)c2ccc(OCC(=O)O/N=C(\N)c3ccc4ccccc4c3)cc2)cc1 [Compound 4f, N’-(2-{4-[(2E)-3-(4-Methoxyphenyl)prop-2-enoyl]phenoxy}acetoxy) naphthalene-2-carboximidamide]					31.2 ± 2.2%	176 to 178 °C						
COc1ccc(C(=O)/C=C/c2ccc(OCC(=O)ON=C(N)c3ccc(Cl)cc3)cc2)cc1 [Compound 6b, N’-(2-{4-[(1E)-3-(4-Methoxyphenyl)-3-oxoprop-1-en-1-yl]phenoxy}acetoxy) -4-chlorobenzenecarboximidamide]					49.6 ± 2.3%	192 to 193 °C						
COc1ccc(C(=O)/C=C/c2ccc(OCC(=O)ON=C(N)c3ccc(OC)cc3)cc2)cc1 [Compound 6c, N’-(2-{4-[(1E)-3-(4-Methoxyphenyl)-3-oxoprop-1-en-1-yl]phenoxy}acetoxy)-4-methoxybenzenecarboximidamide]	11.42 ± 1.75%	28.44 ± 2.75%	54.36% and 54.36 ± 2.34%	62.21% and 62.21 ± 3.46%	67.1 ± 2.4%		> 80 µM	> 80 µM	5.92 µM	2.45 µM	0.0275 µM	IC50 (bovine COX-1): 64.4 ± 3.35 µM; SI (COX-2): 7.79
COc1ccc(C(=O)/C=C/c2ccc(OCC(=O)O/N=C(\N)c3ccc4ccccc4c3)cc2)cc1 [Compound 6f]					29.4 ± 2.5%	178 to 179 °C						
COc1ccc2c(c1)c(CC(=O)O)c(C)n2C(=O)c1ccc(Cl)cc1 [Indomethacin, reference compound]	28.03 ± 1.35%	45.27 ± 2.48%	63.71 ± 3.48%	56.27 ± 2.14%	25.5%		> 80 µM	> 80 µM	45.7 µM	24.6 µM	0.0766 µM	% of edoema inhibition (% mean ± SEM), 3 h [1, 5]: 63.71%; % of edoema inhibition (% mean ± SEM), 4 h [1, 5]: 56.27%
